Measured values as given in US20060110803A1 (Crucell Holland B.V., priority 2003, published 2006).

Legend:
[1] = tested on: antibodies in rabbit serum obtained by immunizing a rabbit with the SARS-CoV strain Frankfurt 1; format: binding
[2] = tested on: antibodies in sera of individuals which have been and/or are infected by SARS-CoV (SARS-green, SARS-yellow, 1a, 1b, 2, 6, 37, 62, London); format: binding, human
[3] = tested on: antibodies in control sera (pooled serum of 10 healthy LUMC hospital workers; commercial negative donor pooled serum); format: binding, human

Sequence	recognition by rabbit serum [1]	recognition by sera of SARS-CoV infected individuals, looped/cyclic form [2]	recognition by sera of SARS-CoV infected individuals (domains homologous with OC43 spike) [2]	recognition by control sera (domains homologous with OC43 spike) [3]
ALGKLQDVVNQNAQA [SEQ ID NO:954]	recognized by the rabbit serum	recognized in looped/cyclic form		
GKLQDVVNQNAQALN [SEQ ID NO:956]	recognized by the rabbit serum	recognized in looped/cyclic form		
GYHLMSFPQAAPHGVVFLHVTYVPSQERNFTTAPAICHEGKAYFPREG [SEQ ID NO:1247]			recognition by sera derived from individuals which have been and/or are still infected by SARS-CoV	recognition by control sera derived from individuals which have not been infected by SARS-CoV
KLQDVVNQNAQALNT [SEQ ID NO:957]	recognized by the rabbit serum	recognized in looped/cyclic form		
KPTKRSFIEDLLF [SEQ ID NO:1244]			recognition by sera derived from individuals which have been and/or are still infected by SARS-CoV	recognition by control sera derived from individuals which have not been infected by SARS-CoV
LGKLQDVVNQNAQAL [SEQ ID NO:955]	recognized by the rabbit serum	recognized in looped/cyclic form		
TFMLKYDENGTITDA [SEQ ID NO:289]	recognized by the rabbit serum			
TSTALGKLQDVVNQN [SEQ ID NO:951]	recognized by the rabbit serum			
TTFDDVQAPNYTQHT [SEQ ID NO:59]	recognized by the rabbit serum			
TTFMLKYDENGTITD [SEQ ID NO:288]	recognized by the rabbit serum			
TTSTALGKLQDVVNQ [SEQ ID NO:950]	recognized by the rabbit serum	recognized in looped/cyclic form		
VLYENQKQIANQFNKAISQIQ [SEQ ID NO:1245]			recognition by sera derived from individuals which have been and/or are still infected by SARS-CoV	recognition by control sera derived from individuals which have not been infected by SARS-CoV
VQAPNYTQHTSSMRG [SEQ ID NO:64]	recognized by the rabbit serum			
